In patent publication US5401771A, “Method of combatting household insects” (priority 1992, dated 1995):

Experiments:
housefly = assay: Study of the killing effect on the housefly (direct spraying, Kearns and March chamber); type: in vivo; conditions: for KT50 (time where 50% of the insects were killed): 4-day old female houseflies, direct spraying, dose 0.25 g/l, Isopar L with 5% acetone
Protocol: A. Study of the killing effect on the housefly.
The insects used were 4-day old female houseflies and the operation was carried out by direct spraying at a concentration of 0.25 g/1 in a Kearns and March chamber. The tested product was dissolved in Isopar L (petroleum solvent) with 5% acetone. 2 ml of solution were sprayed per second and 50 insects were used per treatment Checks were carried out every minute for 10 minutes, then after 15 minutes. The (KT50) time in minutes where 50% of the insects were killed was determined and the results are in Table I.

[1] = tested on: cockroaches (Blattella germanica); assay: Study of the knock-down effect on cockroaches (direct spraying); type: in vivo; conditions: for percentage of cockroaches knocked down at 100 µg/mL / percentage of cockroaches knocked down at 500 µg/mL: Blattella germanica, 5 min, after 5 minutes, 12-week old males, read-out: KD (percentage of cockroaches knocked down), printed % KILLED; for percentage of cockroaches knocked down at 100 µg/mL: 100 mg/l; for percentage of cockroaches knocked down at 500 µg/mL: 500 mg/l
Protocol: B. Study of the knock-down effect on cockroaches
The test was carried out on 12-week old male cockroaches (Blattella germanica) and the operation was carried out by direct spraying in a 13.5 cm diameter glass chamber. The product tested was dissolved in Isopar and 0.75 ml of solution was sprayed for 2.5 seconds on 20 cockroaches having been placed beforehand in the chamber. The KD (percentage of cockroaches knocked down) after 5 minutes at a dose of 500 mg/1 was determined and the products corresponding to 100% of KD insects at this does were evaluated at a dose of 100 mg/1 by the same protocol and the results are in Table II.

rats [2] = assay: Acute toxicity on mammals by intravenous route; type: in vivo; conditions: relative to C (cis E)
Protocol: (§1) C. Acute toxicity on mammals
(§2) type: rats, vehicle: PEG 300.
(§3) The results were expressed in LD50 mg/kg and the results obtained are as follows: […]

[3] = Acute toxicity on mammals by intravenous route; type: in vivo, rats; conditions: rat, in vivo, rats, vehicle PEG 300, read-out: LD50 I.R. (intravenous route)
Protocol: as §1, §2, §3

rats [4] = assay: Acute toxicity on mammals by oral route; type: in vivo; conditions: relative to C (cis E)
Protocol: as §1
(§4) type: rats, vehicle: corn oil.
as §3

[5] = Acute toxicity on mammals by oral route; type: in vivo, rats; conditions: rat, in vivo, rats, vehicle corn oil, read-out: LD50 O.R. (oral route)
Protocol: as §1, §4, §3

[6] = conclusion in words, equivalent notably to C (cis E)

SMILES | KT50 (time where 50% of the insects were killed) (housefly) [min] | percentage of cockroaches knocked down at 100 µg/mL [1] [%] | killing activity on cockroaches [1, 6] | killing activity on flies (housefly; [6]) | toxicity on mammals lower than that of C (cis E), intravenously (rats [2]) | LD50 [3] [mg/kg] | toxicity on mammals lower than that of C (cis E), orally (rats [4]) | LD50 [5] [mg/kg] | percentage of cockroaches knocked down at 500 µg/mL [1] [%]
C=CCC1=C(C)C(OC(=O)[C@@H]2[C@@H](C=C(C)C)C2(C)C)CC1=O (stereo partly drawn) [Bioallethrin] | 10 | – | – | – | – | – | – | – | –
COC(=O)/C(F)=C/[C@@H]1[C@@H](C(=O)O[C@H](C#N)c2cccc(Oc3ccccc3)c2)C1(C)C [Product A, (S) α-cyano-3-phenoxy-benzyl(1R, trans) 2,2-dimethyl-3-[(ΔZ) 2-fluoro-3-oxo-3-methoxy-propenyl]-cyclopropane carboxylate] | 2.7 | 100 | good killing activity | good killing activity | at least 20 times | ~10 | at least 20 times | > 2000 | –
COC(=O)/C(F)=C\[C@@H]1[C@@H](C(=O)O[C@H](C#N)c2cccc(Oc3ccccc3)c2)C1(C)C [Product B] | – | 47 | – | – | – | 2.5 to 5 | – | > 200 | –
COC(=O)/C(F)=C\[C@H]1[C@@H](C(=O)O[C@H](C#N)c2cccc(Oc3ccccc3)c2)C1(C)C [Product C] | 2.7 | 95 | – | – | – | 0.1 to 0.5 | – | ~100 | –
COC(=O)/C(F)=C/[C@H]1[C@@H](C(=O)O[C@H](C#N)c2cccc(Oc3ccccc3)c2)C1(C)C [Product D] | 3.7 | – | – | – | – | 2.5 to 7.5 | – | > 200 | 90
CC(C)=CC1C(C(=O)OCN2C(=O)C3=C(CCCC3)C2=O)C1(C)C (stereo not drawn) [TETRAMETHRIN, Tetramethrin] | – | – | – | – | – | – | – | – | 70
